Measurements published in ChEMBL document CHEMBL1201862, “PubChem BioAssay data set” (2004).
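Tested at 5 concentrations; 48 h exposure; 96-well plates; endpoints linearly interpolated, else capped at highest concentration. Abbreviation: GI50, concentration required for 50% inhibition of growth.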 Activity calls are given as the source filed them. Rule as the data show it: active = GI50 up to about 1.1 µM and inactive = higher.

Key:
Test in all cases: NCI anticancer screen, dose series, 48 h
786-0 = tested on: 786-0
A498 = tested on: A498
A549 = tested on: A549
ACHN = tested on: ACHN
BT-549 = tested on: BT-549
CCRF-CEM = tested on: CCRF-CEM
COLO 205 = tested on: COLO 205
DU-145 = tested on: DU-145
EKVX = tested on: EKVX
HCC 2998 = tested on: HCC 2998
HCT-116 = tested on: HCT-116
HCT-15 = tested on: HCT-15
HL-60 = tested on: HL-60
HOP-62 = tested on: HOP-62
HOP-92 = tested on: HOP-92
HT-29 = tested on: HT-29
Hs-578T = tested on: Hs-578T
IGROV-1 = tested on: IGROV-1
K562 = tested on: K562
KM12 = tested on: KM12
LOX IMVI = tested on: LOX IMVI
M14 = tested on: M14
MCF7 = tested on: MCF7
MDA-MB-435 = tested on: MDA-MB-435
MDA-N = tested on: MDA-N
MOLT-4 = tested on: MOLT-4
Malme-3M = tested on: Malme-3M
NCI-H226 = tested on: NCI-H226
NCI-H23 = tested on: NCI-H23
NCI-H460 = tested on: NCI-H460
NCI-H522 = tested on: NCI-H522
NCI/ADR-RES = tested on: NCI/ADR-RES
OVCAR-3 = tested on: OVCAR-3
OVCAR-5 = tested on: OVCAR-5
OVCAR-8 = tested on: OVCAR-8
PC-3 = tested on: PC-3
RPMI-8226 = tested on: RPMI-8226
RXF 393 = tested on: RXF 393
SF-268 = tested on: SF-268
SF-295 = tested on: SF-295
SF-539 = tested on: SF-539
SK-MEL-2 = tested on: SK-MEL-2
SK-MEL-5 = tested on: SK-MEL-5
SK-OV-3 = tested on: SK-OV-3
SN12C = tested on: SN12C
SNB-19 = tested on: SNB-19
SR = tested on: SR
SW-620 = tested on: SW-620
T47D = tested on: T47D
TK-10 = tested on: TK-10
U-251 = tested on: U-251
UACC-257 = tested on: UACC-257
UACC-62 = tested on: UACC-62
UO-31 = tested on: UO-31

Measured: GI50

Cc1ccc(S(N)(=O)=O)cc1 [P-TOLUENESULFONAMIDE]
> 1000 µM: HCT-15
inactive: 786-0 > 1000 µM | A498 > 1000 µM | A549 > 1000 µM | ACHN > 1000 µM | BT-549 977 µM | CCRF-CEM > 1000 µM | COLO 205 > 1000 µM | DU-145 > 1000 µM | EKVX > 1000 µM | HCC 2998 > 1000 µM | HCT-116 > 1000 µM | HL-60 > 1000 µM | HOP-62 > 1000 µM | HOP-92 558 µM | HT-29 > 1000 µM | Hs-578T > 1000 µM | IGROV-1 > 1000 µM | K562 > 1000 µM | KM12 > 1000 µM | LOX IMVI > 1000 µM | M14 > 1000 µM | MCF7 > 1000 µM | MDA-MB-435 > 1000 µM | MDA-N > 1000 µM | MOLT-4 > 1000 µM | Malme-3M > 1000 µM | NCI-H226 > 1000 µM | NCI-H23 > 1000 µM | NCI-H460 > 1000 µM | NCI-H522 > 1000 µM | NCI/ADR-RES > 1000 µM | OVCAR-3 > 1000 µM | OVCAR-5 > 1000 µM | OVCAR-8 > 1000 µM | PC-3 > 1000 µM | RPMI-8226 > 1000 µM | RXF 393 502 µM | SF-268 > 1000 µM | SF-295 > 1000 µM | SF-539 > 1000 µM | SK-MEL-2 > 1000 µM | SK-MEL-5 > 1000 µM | SK-OV-3 > 1000 µM | SN12C > 1000 µM | SNB-19 > 1000 µM | SR > 1000 µM | SW-620 > 1000 µM | T47D > 1000 µM | TK-10 > 1000 µM | U-251 > 1000 µM | UACC-257 > 1000 µM | UACC-62 > 1000 µM | UO-31 > 1000 µM
